Assays:
OATP1B1 = molecular target: T1, OATP1B1 (Homo sapiens, UniProt Q9Y6L6); assay: OATP1B1 inhibition, β-estradiol 17-(β-D-glucuronide) uptake in transfected HEK293 cells
T1 sequence (Q9Y6L6 1-691): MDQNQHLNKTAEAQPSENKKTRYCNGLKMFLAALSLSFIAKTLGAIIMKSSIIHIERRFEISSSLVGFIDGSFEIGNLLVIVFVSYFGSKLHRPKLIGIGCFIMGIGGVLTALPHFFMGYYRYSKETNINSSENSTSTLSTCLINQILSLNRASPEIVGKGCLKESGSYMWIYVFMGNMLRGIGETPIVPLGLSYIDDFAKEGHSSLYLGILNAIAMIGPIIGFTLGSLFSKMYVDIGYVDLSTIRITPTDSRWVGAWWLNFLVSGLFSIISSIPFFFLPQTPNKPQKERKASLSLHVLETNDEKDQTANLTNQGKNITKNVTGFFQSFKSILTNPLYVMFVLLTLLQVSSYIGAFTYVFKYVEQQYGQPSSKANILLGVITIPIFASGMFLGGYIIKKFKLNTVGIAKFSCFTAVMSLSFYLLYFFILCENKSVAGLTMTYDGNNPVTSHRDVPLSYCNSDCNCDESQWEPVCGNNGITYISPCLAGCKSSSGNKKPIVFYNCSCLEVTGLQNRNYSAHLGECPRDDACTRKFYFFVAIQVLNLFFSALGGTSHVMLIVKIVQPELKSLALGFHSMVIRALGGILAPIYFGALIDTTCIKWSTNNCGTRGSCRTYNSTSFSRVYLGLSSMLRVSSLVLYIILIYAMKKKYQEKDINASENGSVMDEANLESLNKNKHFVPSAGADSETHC
Description: (§1) The pre-incubation solutions were removed, and incubation solutions containing the inhibitors and probe substrates (or transport buffer containing an equal volume of vehicle control and probe substrates) were added and incubated at 37°C for 2 min (5 min for OATP1B3). The probe substrate for OAT1 was 4-aminohippuric acid (10 μM), for OAT3 was estrone 3-sulfate (10 μM), for OCT2 was metformin (100 μM), for OATP1B1 was β-estradiol 17-(β-D-glucuronide) (5 μM), for OATP1B3 was β-estradiol 17-(β-D-glucuronide) (10 μM), and for MATE1 and MATE2-K was tetraethylammonium (10 μM). After incubation, cells were washed three times with ice-cold transport buffer (25 mM HEPES, pH 7.4, pH 8.0 for overexpressing MATE1 and MATE2-K HEK293 cells) and lysed in distilled water. The concentrations of probe substrates were determined by LC-MS/MS, and a BCA Kit (Solarbio ®Life Sciences, Beijing, China) was used to determine the protein content in the cell lysate.
(§2) where C is the concentration of the drug in the cell lysate (nM), P is the protein concentration of the cell lysate (mg/mL), and T is the incubation time (minute). Uptake ratetest compound is the uptake rate of the substrate in the presence of the test compound. Uptake ratevehicle control is the uptake rate of the substrate in the presence of the vehicle control. Uptake ratepassive is the uptake rate of the substrate in the presence of the positive inhibitor at the top test concentration.

OATP1B3 = molecular target: T2, OATP1B3 (Homo sapiens, UniProt Q9NPD5); assay: OATP1B3 inhibition, β-estradiol 17-(β-D-glucuronide) uptake in transfected HEK293 cells
T2 sequence (Q9NPD5 1-702): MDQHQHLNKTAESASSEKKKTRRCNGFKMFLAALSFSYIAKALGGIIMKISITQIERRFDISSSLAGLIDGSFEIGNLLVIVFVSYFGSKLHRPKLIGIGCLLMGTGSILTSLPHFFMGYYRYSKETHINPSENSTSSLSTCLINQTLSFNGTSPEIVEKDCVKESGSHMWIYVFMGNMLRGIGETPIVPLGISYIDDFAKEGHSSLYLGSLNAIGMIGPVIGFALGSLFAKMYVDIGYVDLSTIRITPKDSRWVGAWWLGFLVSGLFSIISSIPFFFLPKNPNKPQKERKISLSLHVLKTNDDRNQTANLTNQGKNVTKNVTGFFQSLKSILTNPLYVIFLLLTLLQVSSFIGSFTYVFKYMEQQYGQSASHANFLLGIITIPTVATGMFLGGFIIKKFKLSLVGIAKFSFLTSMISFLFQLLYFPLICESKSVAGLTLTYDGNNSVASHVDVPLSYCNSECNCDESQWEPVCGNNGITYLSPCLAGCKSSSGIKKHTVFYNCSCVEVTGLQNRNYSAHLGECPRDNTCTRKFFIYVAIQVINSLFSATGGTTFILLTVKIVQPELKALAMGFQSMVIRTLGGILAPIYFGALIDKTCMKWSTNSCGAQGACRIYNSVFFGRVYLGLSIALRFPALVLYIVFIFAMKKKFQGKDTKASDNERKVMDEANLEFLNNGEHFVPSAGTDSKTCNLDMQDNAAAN
Description: as §1, §2

## C[C@H](Nc1ncnc(N)c1C#N)c1cc2ncc(Cl)n2nc1-c1ccccc1 [Amdizalisib]
OATP1B1
  IC50: 7.27 µM
OATP1B1; human, 2 min, 0.3 μM, pH 7.4
  Percentage transported: 113%
  Uptake rate: 59.0±1.42 pmol/mg protein/min
OATP1B1; human, 2 min, 1 μM, pH 7.4
  Percentage transported: 105%
  Uptake rate: 55.1±2.95 pmol/mg protein/min
OATP1B1; human, 2 min, 3 μM, pH 7.4
  Percentage transported: 86.5%
  Uptake rate: 47.2±3.13 pmol/mg protein/min
OATP1B1; human, 2 min, 10 μM, pH 7.4
  Percentage transported: 32.7%
  Uptake rate: 19.3±4.10 pmol/mg protein/min
OATP1B1; human, 2 min, 30 μM, pH 7.4
  Percentage transported: 8.04%
OATP1B1; human, 2 min, 100 μM, pH 7.4
  Percentage transported: -3.17%
  Uptake rate: 1.46±0.141 pmol/mg protein/min
OATP1B1; human, 2 min, pH 7.4
  calculated R value (OATP1B1): 3.8
OATP1B1; human, pH 7.4
  inhibition at 2 min, 0.3 µM: -12.5%
  inhibition at 2 min, 1 µM: -4.64%
  inhibition at 2 min, 3 µM: 13.5%
  inhibition at 2 min, 10 µM: 67.3%
  inhibition at 2 min, 30 µM: 92%
  inhibition at 2 min, 100 µM: 103%
OATP1B3
  IC50: 5.03 µM
OATP1B3; human, 5 min, 0.3 μM, pH 7.4
  Percentage transported: 94.5%
  Uptake rate: 62.4±5.58 pmol/mg protein/min
OATP1B3; human, 5 min, 1 μM, pH 7.4
  Percentage transported: 89.2%
  Uptake rate: 59.1±6.36 pmol/mg protein/min
OATP1B3; human, 5 min, 3 μM, pH 7.4
  Percentage transported: 68.1%
  Uptake rate: 46.2±10.1 pmol/mg protein/min
OATP1B3; human, 5 min, 10 μM, pH 7.4
  Percentage transported: 29.3%
  Uptake rate: 22.4±1.00 pmol/mg protein/min
OATP1B3; human, 5 min, 30 μM, pH 7.4
  Percentage transported: 3.82%
  Uptake rate: 6.76±0.372 pmol/mg protein/min
OATP1B3; human, 5 min, 100 μM, pH 7.4
  Percentage transported: -4.02%
  Uptake rate: 1.99±0.315 pmol/mg protein/min
OATP1B3; human, 5 min, pH 7.4
  calculated R value (OATP1B3): 5.1
OATP1B3; human, pH 7.4
  inhibition at 5 min, 0.3 µM: 5.47%
  inhibition at 5 min, 1 µM: 10.8%
  inhibition at 5 min, 3 µM: 31.9%
  inhibition at 5 min, 10 µM: 70.7%
  inhibition at 5 min, 30 µM: 96.2%
  inhibition at 5 min, 100 µM: 104%
